Experimental data taken from patent US20060100243A1 (priority 2004, published 2006).
Entries after “also recorded” stand apart in the source; their conditions may differ. Like-named read-outs stand apart in the source and are kept apart here.

How the values were obtained:
[1] = molecular target: T1, recombinant human norepinephrine transporter (Homo sapiens, UniProt P23975); test: cell-based; conditions: HEK 293 cells
T1 construct: expressed in transfected cells

[2] = molecular target: T1, recombinant human norepinephrine transporter; test: biochemical; format: binding; conditions: HEK 293 cells
[3] = molecular target: T2, recombinant human dopamine transporter (Homo sapiens, UniProt Q01959); test: dopamine reuptake inhibition in HEK 293 cells; format: cell-based; conditions: for IC50: RR/SS racemates table, HEK 293 cells
T2 construct: expressed in transfected cells

[4] = test system: male Swiss-Webster mice; test: dose response study of induced locomotor stimulation; conditions: for time of occurrence of stimulant effects following injection: at the active doses
[5] = molecular target: T2, recombinant human dopamine transporter; test: [125I]RTI-55 binding, dopamine transporter in HEK 293 cells; conditions: for Ki: RR/SS racemates table, HEK 293 cells
[6] = molecular target: T3, recombinant human serotonin transporter (Homo sapiens, UniProt P31645); test: biochemical; format: binding
T3 construct: expressed in transfected cells

[7] = molecular target: T3, recombinant human serotonin transporter; test: serotonin (5HT) reuptake inhibition in HEK 293 cells; format: cell-based; conditions: SEROTONIN 5HT REUPTAKE (IC50), HEK 293 cells
[8] = prescribed doses; cited from earlier work
[9] = RR/SS racemates table, read-out: NOREPINEPHRINE NE REUPTAKE (IC50)
[10] = RR/SS racemates table, read-out: NOREPINEPHRINE [I125]-RTI-55 BINDING (Ki)

T3 sequence (P31645 whole entry): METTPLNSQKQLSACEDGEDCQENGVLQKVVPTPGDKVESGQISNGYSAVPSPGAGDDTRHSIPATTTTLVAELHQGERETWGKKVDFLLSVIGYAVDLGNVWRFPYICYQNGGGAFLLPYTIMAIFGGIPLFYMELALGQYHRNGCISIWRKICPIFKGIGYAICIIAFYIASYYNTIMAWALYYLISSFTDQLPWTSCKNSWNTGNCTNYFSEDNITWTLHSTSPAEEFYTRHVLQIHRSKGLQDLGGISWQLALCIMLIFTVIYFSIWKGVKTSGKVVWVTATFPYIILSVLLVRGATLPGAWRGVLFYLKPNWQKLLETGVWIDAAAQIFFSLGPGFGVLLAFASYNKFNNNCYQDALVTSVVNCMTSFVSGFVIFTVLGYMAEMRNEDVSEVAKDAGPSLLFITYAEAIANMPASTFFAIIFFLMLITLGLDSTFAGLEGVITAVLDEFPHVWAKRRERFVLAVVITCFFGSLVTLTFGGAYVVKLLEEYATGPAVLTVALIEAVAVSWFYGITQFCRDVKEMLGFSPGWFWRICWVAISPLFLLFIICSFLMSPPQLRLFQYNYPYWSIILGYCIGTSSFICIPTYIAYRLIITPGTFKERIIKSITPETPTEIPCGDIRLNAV
T2 sequence (Q01959 whole entry): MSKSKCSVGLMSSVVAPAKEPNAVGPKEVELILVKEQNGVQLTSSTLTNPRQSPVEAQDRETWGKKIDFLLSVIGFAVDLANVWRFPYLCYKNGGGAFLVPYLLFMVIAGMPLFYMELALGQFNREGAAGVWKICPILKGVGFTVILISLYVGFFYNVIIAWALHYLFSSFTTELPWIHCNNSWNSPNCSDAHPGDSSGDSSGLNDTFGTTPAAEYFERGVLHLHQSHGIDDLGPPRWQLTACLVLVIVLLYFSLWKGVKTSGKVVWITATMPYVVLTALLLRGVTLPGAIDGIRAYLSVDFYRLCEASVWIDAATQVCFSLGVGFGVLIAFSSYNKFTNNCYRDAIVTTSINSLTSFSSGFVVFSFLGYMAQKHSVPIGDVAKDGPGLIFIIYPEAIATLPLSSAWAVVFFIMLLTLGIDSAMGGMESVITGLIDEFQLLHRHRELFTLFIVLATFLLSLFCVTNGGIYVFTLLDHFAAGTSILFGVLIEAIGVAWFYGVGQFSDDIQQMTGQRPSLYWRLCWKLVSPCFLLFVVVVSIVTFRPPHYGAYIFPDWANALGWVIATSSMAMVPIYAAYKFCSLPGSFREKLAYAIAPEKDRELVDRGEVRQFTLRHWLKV
T1 sequence (P23975 whole entry): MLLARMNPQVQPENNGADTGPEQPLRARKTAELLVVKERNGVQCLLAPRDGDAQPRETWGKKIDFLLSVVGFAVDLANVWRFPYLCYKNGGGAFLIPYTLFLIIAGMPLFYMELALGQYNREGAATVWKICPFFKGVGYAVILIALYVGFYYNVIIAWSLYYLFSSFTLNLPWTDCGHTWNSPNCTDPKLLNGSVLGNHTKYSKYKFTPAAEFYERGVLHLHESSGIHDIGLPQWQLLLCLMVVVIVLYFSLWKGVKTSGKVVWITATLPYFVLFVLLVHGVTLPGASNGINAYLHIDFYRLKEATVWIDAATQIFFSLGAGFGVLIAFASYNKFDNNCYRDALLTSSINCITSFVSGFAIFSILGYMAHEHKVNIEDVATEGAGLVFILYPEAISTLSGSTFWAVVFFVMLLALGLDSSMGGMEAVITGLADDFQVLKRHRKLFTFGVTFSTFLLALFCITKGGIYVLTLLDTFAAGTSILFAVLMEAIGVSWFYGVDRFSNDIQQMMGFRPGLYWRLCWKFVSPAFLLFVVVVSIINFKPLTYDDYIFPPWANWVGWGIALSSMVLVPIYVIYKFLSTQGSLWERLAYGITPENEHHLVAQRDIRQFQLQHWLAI

## CC(C)CC(c1ccc(Cl)cc1)C1CCCCN1 (racemic) [Sample D]
[1]; [9]
  IC50: 120 ± 40 nM
[2]; [10]
  Ki: 840 ± 130 nM
[3]; read-out: DOPAMINE DA REUPTAKE (IC50)
  IC50: 8.6 ± 2.9 nM
[4]; mice, IP, 3 mg/kg
  duration of stimulant effects: up to 4 hours
[4]; mice, IP, 10 mg/kg
  duration of stimulant effects: ≤ 5 h
[4]; mice, IP, 30 mg/kg
  duration of stimulant effects: over 8 hours
[4]; mice, IP
  time of occurrence of stimulant effects following injection: at least 20 minutes
[5]; read-out: DOPAMINE [I125]-RTI-55 BINDING (Ki)
  Ki: 16 ± 4 nM
[5]; in words, binding and reuptake, compared with MPH / other samples
  potency at binding to the dopamine transporter and blocking dopamine reuptake: enhanced potency; also recorded: most potent

## CC(C)CC(c1ccc(Cl)c(Cl)c1)C1CCCCN1C (single isomer, unassigned) [O]
[6]; RR/SS racemates table, HEK 293 cells, read-out: SEROTONIN [I125]-RTI-55 BINDING (Ki)
  Ki: 1300 ± 200 nM
[7]; RR/SS racemates table
  IC50: 1400 ± 500 nM
[1]; [9]
  IC50: 29 ± 3 nM
[2]; [10]
  Ki: 190 ± 60 nM
[3]; DOPAMINE DA REUPTAKE (IC50)
  IC50: 13 ± 4 nM
[3]; ratio of NE/DA reuptake IC50, selectivity for dopamine over norepinephrine transporter
  NE/DA REUPTAKE: 2.2
[5]; DOPAMINE [I125]-RTI-55 BINDING (Ki)
  Ki: 6.6 ± 0.9 nM

## COC(=O)C(c1ccccc1)C1CCCCN1 (stereo not drawn) [MPH, methylphenidate, reference compound]
[6]
  binding to or reuptake at the serotonin transporter: neither MPH nor the MPH analogs demonstrated significant binding to or reuptake at the serotonin transporter
[6]; SEROTONIN [I125]-RTI-55 BINDING (Ki)
  Ki: 40000 ± 8000 nM
[7]; RR/SS racemates table
  IC50: 55000 ± 16000 nM
[7]; RS/SR racemates table
  IC50: 55000 ± 16000 nM
[1]; NORE[…] REUPTAKE (IC50), RR/SS racemates table
  IC50: 38 ± 4 nM
[1]; NORE[…] REUPTAKE (IC50), RS/SR racemates table
  IC50: 38 ± 4 nM
[2]; NOREPINEPHRINE [I125]-RTI-55 BINDING (Ki), RR/SS racemates table
  Ki: 1800 ± 800 nM
[2]; NOREPINEPHRINE [I125]-RTI-55 BINDING (Ki), RS/SR racemates table
  Ki: 1800 ± 800 nM
[8]
  time of maximum drug concentration after oral administration: about two hours
[4]; mice, IP
  time of occurrence of stimulant effects following injection: ≤ 10 min
[4]; mouse, in vivo
  duration of stimulant effects: up to 4 hours

## COC(=O)[C@H]1[C@@H](OC(=O)c2ccccc2)C[C@@H]2CC[C@H]1N2C [cocaine]
[4]; mice, IP, 20 mg/kg
  period of maximal stimulant effects: ≤ 30 min
[4]; mice, IP, 10, 20, and 40 mg/kg
  duration of stimulant effects: up to 2 hours
[4]; mice, IP
  time of occurrence of stimulant effects following injection: ≤ 10 min
